The values below come from patent publication EP0778733B1, “A BASIC PROTEIN COMPOSITION FOR KILLING OR INHIBITING MICROBIAL CELLS” (NOVO NORDISK A/S, priority 1994, dated 1996).

What all share (type): cell-based
One test deals with all the tested strains. Briefly: Comparative impedimetric MIC, all tested strains of Table 4. As to conditions: summary of Table 4. How it is done:
(§1) The minimum inhibition concentration (MIC) of various-substances was determined as described in Example 1.
(§2) The following substances were tested: protamine (A), protamine sulphate (B), a peroxidase enzyme system (i.e. lactoperoxidase/glucoseoxidase (C)), subtilisin A (D), polyarginine (E) having an average molecular weight of about 6 kD and lysozyme (F) (150 000 units/mg; Johansen, C. et al., 1994).

The test system of a further test is Shewanella putrefaciens. Briefly: Impedimetric MIC / detection time, growing cells in TSB (Bactometer). As to conditions: Table 4, determined as in Example 1 (inhibition of at least 100 hours); n.e. = not effective. How it is done:
(§3) Volumes (1.0 ml) of TSB medium were added to Bactometer® wells. Protamine solutions (0.1 ml) were transferred to the wells which were sealed, connected to the Bactometer B123-2 (bioMérieux UK ltd., UK) and incubated at 25°C until a significant detectable increase in the electrical conductivity of the medium was registered and the detection time (DT) was recorded (maximum 100 h). Detection usually occurs when the cell concentration reaches 10^6-10^7 cfu/ml. For the Gram-positive strains the capacitance signal was monitored, while change in conductance was used for Gram-negative strains.
(§4) was measured in the Bactometer modules. […]
(§5) Minimum Inhibition Concentration (MIC) was determined as the lowest concentration of protamine resulting in absence of a DT.
(§6) When no DT was measured, the lethal/inhibitory effect on the cells were tested by plating the total well volume.
(§7) The minimum inhibition concentration (MIC) of various-substances was determined as described in Example 1. […]
(§8) Further, the influence of cell concentration on the anti-bacterial effect of protamine was tested using the materials and methods described in Example 1, i.e.the correlation between cell concentration and protamine concentration has been measured by the impedimetric assay.

In the next test the test system is Listeria monocytogenes. The test is described as above. As to conditions: Table 4, determined as in Example 1 (inhibition of at least 100 hours); n.e. = not effective. Here is the method: as §3, §4, §5, §6, §7, §8
For another test, the system named is Vibrio paraheamolyticus. Described as above. As to conditions: Table 4, determined as in Example 1 (inhibition of at least 100 hours); n.e. = not effective. How it is done:
as §3
(§9) was measured in the Bactometer modules. The wells (containing 1 ml TSB and 0.1 ml protamine solution) were inoculated with 0.1 ml from a 10^-4 dilution of an inoculum culture, giving a final cell concentration in the well of approximately 10^3 cfu/ml. The concentration of protamine varied from 1 to 4000 µg/ml depending on the sensitivity of the strain investigated.
as §5, §6, §1, §2

A further test relates to Staphylococcus aureus. Described as above. Conditions: Table 4, determined as in Example 1 (inhibition of at least 100 hours); n.e. = not effective. How it is done: as §3, §9, §5, §6, §1, §2
Another test relates to Escherichia coli 0157:H7. The description is as above. Conditions: Table 4, strain printed as Escherichia coli; determined as in Example 1 (inhibition of at least 100 hours); n.e. = not effective. How it is done:
as §3, §9, §5, §6, §1, §2

The subject of a further test is Pseudomonas aeruginosa. The description is as above. Conditions: Table 4, strain printed as Pseudomonas aeroginosa; determined as in Example 1 (inhibition of at least 100 hours); n.e. = not effective. Also noted: key: n.e.: not effective. Here is the method: as §3, §9, §5, §6, §7
The test system of test [1] is Pseudomonas fluorescens. The test is described as above. Also noted: key: n.e.: not effective. Conditions: Table 4, determined as in Example 1 (inhibition of at least 100 hours); n.e. = not effective. How it is done: as §3, §9, §5, §6, §7
Test [2] deals with Pseudomonas fluorescens. Briefly: Synergy growth inhibition experiments, impedimetric, factorial design. As to conditions: each alone: protamine 250 µg/ml, polylysine 500 µg/ml, lactoperoxidase 2 U/ml, glucose oxidase 2 U/ml. Here is the method:
Impedimetric measurements carried out as described in example 1 have shown an synergistic effect between basic peptides as protamine, polyarginine or polylysine and lysozyme and/or glucose oxidase and/or the lactoperoxidase enzyme system depending on pH and NaCl concentration.
Growth inhibition experiments were conducted, wherein synergistic and additional effects were determined by mixing compounds in low concentrations not having any activity on their own and using a factoral design. The effects were measured as growth inhibition or a 100% bacteriocidal effect with a total kill of the inoculum.

On to polyarginine, for which the “effectiveness for inhibiting the tested strains” value with all the tested strains is reported as “effective for inhibiting all strains but Pseudomonas spp”. Also, the “Minimum Inhibitory Concentration” value was 1500 µg/mL with Shewanella putrefaciens; 2000 µg/mL in the test with Listeria monocytogenes; 2000 µg/mL in the test on Vibrio paraheamolyticus; 1500 µg/mL in the test on Staphylococcus aureus; 1500 µg/mL in the test on Escherichia coli 0157:H7; “n.e” with Pseudomonas aeruginosa. Besides, the “Minimum Inhibitory Concentration” value in the test with Pseudomonas fluorescens [1] is “n.e”.

In the case of polylysine, the “growth inhibition, compound alone” value with Pseudomonas fluorescens [2] is recorded as “not inhibited”.
